Molecules are shown by their SMILES.

This assay addresses Syk (356-635 amino acids) catalytic domain (Homo sapiens (Human), UniProt P43405). In words: Inhibition of enzymatic Syk kinase activity (radiometric). The following applies: read-out: IC50 Syk. It is filed as biochemical. The source says: The objective of this assay was to examine by radiometric method the ability of compounds to inhibit Syk kinase enzyme. Syk is capable of phosphorylating substrates such as VAV, LAT, SLP-76, which in turn activate MAPK, PLCγ signaling pathways. […] This in vitro assay tests the ability of syk to phosphorylate a substrate peptide in the presence of ATP. By using a radio-labeled form of ATP, it is possible to measure the amount of phosphorylation of the substrate. The enzyme transfers a radio-labeled phosphate group from γ32 P labeled ATP to pG4T. Briefly the enzyme was incubated with substrate, radio-labeled & cold ATP and substrate in buffer with or without compounds. At the end of the reaction, the reaction mixture was transferred on to a Multiscreen filter plate and unreacted γ^32P ATP was washed off. The filter plate was dried and the radioactivity was measured on a scintillation counter to estimate the incorporated radioactivity on the substrate. The percent inhibition of activity of the enzyme was calculated by comparing counts in the presence and absence of compounds. […] 2.5 μL of 10% DMSO or compound in 10% DMSO was added to the wells in a 96 well V-bottom plate. Optimized concentration of in-house Syk enzyme (different batches of Syk (356-635) kinase domain) were used at optimized concentrations) ranging from 0.035 ng to 7.5 ng/reaction diluted in assay buffer was added to a total volume of 12.5 μL). Compound and protein were incubated for 30 minutes at room temperature on a plate shaker. Ten μL of a substrate mix containing 100 μM ATP (0.25 μL), γ-P^32-ATP (0.1 μL; 10 μCi/μL), pG4T (0.25 μL; 10 mg/mL) and 1× assay buffer (9.4 μL) was added to all the wells. Samples were incubated at 30° C. for 10 minutes after mixing. The reaction was stopped by the addition of 8N HCl (13 μL) containing 100 mM ATP. Thirty μL of sample was transferred to the center of a 2×2 cm^2 Whatman® P81 chromatography paper. After allowing the sample to dry for one minute, the assay squares were washed 3 times for 5 minutes each in ortho-phosphoric acid (0.5%) and once in acetone. Assay squares were dried for 15 minutes in a 30° C. oven and transferred to 96 well optiplate. Microscint-O® reagent (100 μL, Perkin Elmer) was added to each well, the plate was sealed with Topseal®-A microplates and incubated for 10 minutes at room temperature at very low speed on rocker and the plate was read in the Topcount® NXL instrument. The following calculations were made: Fold induction=radioactivity counts (uncorrected values) in positive control/substrate control.
Usually IC50 stands for the point on the concentration scale where inhibition reaches its midpoint. Regarding `O=C(O)C1CC12CCN(c1ccc(Nc3nc(-c4ccccc4)nc4cn[nH]c(=O)c34)cn1)CC2` (stereo not drawn) [Example 137, 6-(5-((5-oxo-2-phenyl-5,6-dihydropyrimido[4,5-d]pyridazin-4-yl)amino)pyridin-2-yl)-6-azaspiro[2.5]octane-1-carboxylic acid], the IC50 was over 100 nM.

With `O=C(O)C1CC12CCN(c1ccc(Nc3nc(-c4ccncc4)nc4cn[nH]c(=O)c34)cc1)CC2` (stereo not drawn) [Example 138, 6-(4-((5-oxo-2-(pyridin-4-yl)-5,6-dihydropyrimido[4,5-d]pyridazin-4-yl)amino)phenyl)-6-azaspiro[2.5]octane-1-carboxylic acid], the IC50 is over 100 nM.

Turning to `N#CC1CCN(c2nc(Nc3ccc(OCCN4CCNCC4)cc3)c3c(=O)[nH]ncc3n2)CC1` [Example 149, 1-(5-oxo-4-((4-(2-(piperazin-1-yl)ethoxy)phenyl)amino)-5,6-dihydropyrimido[4,5-d]pyridazin-2-yl)piperidine-4-carbonitrile], the IC50 is over 100 nM.

For the molecule `COc1cccc(-c2nc(Nc3ccc(N4CCC(CC#N)CC4)cc3)c3c(=O)[nH]ncc3n2)c1` [Example 163, 2-(1-(4-((2-(3-methoxyphenyl)-5-oxo-5,6-dihydropyrimido[4,5-d]pyridazin-4-yl)amino)phenyl)piperidin-4-yl)acetonitrile], the IC50 was over 100 nM.

Regarding `O=c1[nH]ncc2nc(N3CCOCC3)nc(Nc3ccc(OCCN4CCNCC4)cc3)c12` [Example 176, 2-morpholino-4-((4-(2-(piperazin-1-yl)ethoxy)phenyl)amino)pyrimido[4,5-d]pyridazin-5(6H)-one], the half-inhibitory concentration (IC50) was over 100 nM.

As to `CC1CN(c2nc(Nc3ccc(OCCN4CCNCC4)cc3)c3c(=O)[nH]ncc3n2)CC(C)O1` (stereo not drawn) [Example 177, 2-(2,6-dimethylmorpholino)-4-((4-(2-(piperazin-1-yl)ethoxy)phenyl)amino) pyrimido[4,5-d]pyridazin-5(6H)-one], the IC50 was over 100 nM.

In the case of `O=c1[nH]ncc2nc(N3CCCCCC3)nc(Nc3ccc(N4CCC(CCCO)CC4)cc3)c12` [Example 194, 2-(azepan-1-yl)-4-((4-(4-(3-hydroxypropyl)piperidin-1-yl)phenyl)amino)pyrimido[4,5-d]pyridazin-5(6H)-one], the half-inhibitory concentration (IC50) is over 100 nM.

Turning to `N#CCC1CCN(CCN2CCC(Nc3nc(N4CCCCCC4)nc4cn[nH]c(=O)c34)CC2)CC1` [Example 204, 2-(1-(2-(4-((2-(azepan-1-yl)-5-oxo-5,6-dihydropyrimido[4,5-d]pyridazin-4-yl)amino)piperidin-1-yl)ethyl)piperidin-4-yl)acetonitrile], the concentration for half-maximal inhibition (IC50) was over 100 nM.

As to `CCn1nnc(-c2ccc(Nc3nc(N4CCCCCC4)nc4cn[nH]c(=O)c34)cc2)n1` [Example 225, 2-(azepan-1-yl)-4-((4-(2-ethyl-2H-tetrazol-5-yl)phenyl)amino)pyrimido[4,5-d]pyridazin-5(6H)-one], the half-inhibitory concentration (IC50) was over 100 nM.

For `CCn1nnc(-c2ccc(Nc3nc(N4CCC(CC#N)CC4)nc4cn[nH]c(=O)c34)cc2)n1` [Example 226, 2-(1-(4-((4-(2-ethyl-2H-tetrazol-5-yl)phenyl)amino)-5-oxo-5,6-dihydropyrimido[4,5-d]pyridazin-2-yl)piperidin-4-yl)acetonitrile], the IC50 was over 100 nM.

Consider `N#CCN1CCN(c2nc(Nc3ccc(OCCN4CCNCC4)cc3)c3c(=O)[nH]ncc3n2)CC1` [Example 230, 2-(4-(5-oxo-4-((4-(2-(piperazin-1-yl)ethoxy)phenyl)amino)-5,6-dihydropyrimido[4,5-d]pyridazin-2-yl)piperazin-1-yl)acetonitrile], for which the IC50 was over 100 nM.

`N#CCC1CCN(c2nc(Nc3ccc(-c4nnn(CC(=O)O)n4)cc3)c3c(=O)[nH]ncc3n2)CC1` [Example 241, 2-(5-(4-((2-(4-(cyanomethyl)piperidin-1-yl)-5-oxo-5,6-dihydropyrimido[4,5-d]pyridazin-4-yl)amino)phenyl)-2H-tetrazol-2-yl)acetic acid]: the IC50 is over 100 nM.

Regarding `N#CCC1CCN(c2nc(Nc3ccc(N4CCN(CCN)CC4)cc3)c3c(=O)[nH]ncc3n2)CC1` [Example 257, 2-(1-(4-((4-(4-(2-aminoethyl)piperazin-1-yl)phenyl)amino)-5-oxo-5,6-dihydropyrimido[4,5-d]pyridazin-2-yl)piperidin-4-yl)acetonitrile], the IC50 is under 10 nM.

As to `O=c1[nH]ncc2nc(N3CCCCCC3)nc(Nc3ccc(N4CCC5(CC4)CC5CO)cc3)c12` (stereo not drawn) [Example 258, 2-(azepan-1-yl)-4-((4-(1-(hydroxymethyl)-6-azaspiro[2.5]octan-6-yl)phenyl)amino) pyrimido[4,5-d]pyridazin-5(6H)-one], the IC50 was under 100 nM.

Consider `O=c1[nH]ncc2nc(N3CCCCCC3)nc(Nc3ccc(N4CCC(F)(F)CC4)cc3)c12` [Example 279, 2-(azepan-1-yl)-4-((4-(4,4-difluoropiperidin-1-yl)phenyl)amino) pyrimido[4,5-d]pyridazin-5(6H)-one], for which the IC50 was over 100 nM.

For `O=c1[nH]ncc2nc(N3CCCCCC3)nc(Nc3ccc(OCCCO)cc3)c12` [Example 296, 2-(azepan-1-yl)-4-((4-(3-hydroxypropoxy)phenyl)amino)pyrimido[4,5-d]pyridazin-5(6H)-one], the IC50 is under 100 nM.

With `O=c1[nH]ncc2nc(N3CCCCCC3)nc(Nc3ccc(N4CCC(CCF)CC4)cc3)c12` [Example 298, 2-(azepan-1-yl)-4-((4-(4-(2-fluoroethyl)piperidin-1-yl)phenyl)amino) pyrimido[4,5-d]pyridazin-5-(6H)-one], the 50% inhibitory concentration (IC50) was over 100 nM.

Turning to `COc1cc(Nc2nc(N3CCC(CC#N)CC3)nc3cn[nH]c(=O)c23)cc(OC)c1` [Example 300, 2-(1-(4-((3,5-dimethoxyphenyl)amino)-5-oxo-5,6-dihydropyrimido[4,5-d]pyridazin-2-yl)piperidin-4-yl)acetonitrile], the IC50 was over 100 nM.

For `N#CCC1CCN(c2nc(Nc3ccc(OC(F)(F)F)cc3)c3c(=O)[nH]ncc3n2)CC1` [Example 301, 2-(1-(5-oxo-4-((4-(trifluoromethoxy)phenyl)amino)-5,6-dihydropyrimido[4,5-d]pyridazin-2-yl)piperidin-4-yl) acetonitrile], the IC50 was over 100 nM.

`O=c1[nH]ncc2nc(N3CCCCCC3)nc(Nc3ccc(OC(F)(F)F)cc3)c12` [Example 303, 2-(azepan-1-yl)-4-((4-(trifluoromethoxy)phenyl)amino)pyrimido[4,5-d]pyridazin-5(6H)-one]: the half-maximal inhibitory concentration (IC50) was over 100 nM.

`O=c1[nH]ncc2nc(N3CCCCCC3)nc(Nc3cccc(CO)c3)c12` [Example 310, 2-(azepan-1-yl)-4-((3-(hydroxymethyl)phenyl)amino)pyrimido[4,5-d]pyridazin-5(6H)-one]: the IC50 was over 100 nM.

As to `N#CCC1CCN(c2nc(Nc3cccc(CO)c3)c3c(=O)[nH]ncc3n2)CC1` [Example 311, 2-(1-(4-((3-(hydroxymethyl)phenyl)amino)-5-oxo-5,6-dihydropyrimido[4,5-d]pyridazin-2-yl)piperidin-4-yl) acetonitrile], the IC50 is over 100 nM.

As for `O=c1[nH]ncc2nc(N3CCCCCC3)nc(Nc3ccc(F)cc3)c12` [Example 313, 2-(azepan-1-yl)-4-((4-fluorophenyl)amino)pyrimido[4,5-d]pyridazin-5(6H)-one], the IC50 was over 100 nM.

In the case of `CC(C)(Oc1ccc(Nc2nc(N3CCC(CC#N)CC3)nc3cn[nH]c(=O)c23)cc1)C(=O)O` [Example 317, 2-(4-((2-(4-(cyanomethyl)piperidin-1-yl)-5-oxo-5,6-dihydropyrimido[4,5-d]pyridazin-4-yl)amino)phenoxy)-2-methylpropanoic acid], the IC50 was over 100 nM.

`COc1ccc(Nc2nc(N3CCCCCC3)nc3cn[nH]c(=O)c23)cc1OC` [Example 318, 2-(azepan-1-yl)-4-((3,4-dimethoxyphenyl)amino)pyrimido[4,5-d]pyridazin-5(6H)-one]: the IC50 was over 100 nM.

With `COc1ccc(Nc2nc(N3CCC(CC#N)CC3)nc3cn[nH]c(=O)c23)cc1OC` [Example 319, 2-(1-(4-((3,4-dimethoxyphenyl)amino)-5-oxo-5,6-dihydropyrimido[4,5-d]pyridazin-2-yl)piperidin-4-yl)acetonitrile], the IC50 is over 100 nM.

Turning to `COc1cccc(Nc2nc(N3CCCCCC3)nc3cn[nH]c(=O)c23)c1` [Example 320, 2-(azepan-1-yl)-4-((3-methoxyphenyl)amino)pyrimido[4,5-d]pyridazin-5(6H)-one], the concentration for half-maximal inhibition (IC50) was over 100 nM.
